From PubChem BioAssay AID248 (DTP/NCI, 2004)
Values joined by “and” are separate entries in the source; they are usually repeats but may differ in a detail not shown here. Equal values may be shown once. Inconclusive results and toxic doses are left out. No stated cut-off is given here; in the data, active means T/C of 150% or more; inactive means T/C below 125%.

System: L1210 leukemia ip in BDF1 mice, survival T/C
Experiment: NCI In Vivo Anticancer Drug Screen. Data for tumor model L1210 Leukemia (intraperitoneal) in B6D2F1 (BDF1) mice
Settings: endpoint: mean survival time, higher = longer survival
Outline: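 Antitumor effect is assessed in tumor-bearing animals. Survival in the compound arm is compared with a vehicle-dosed control arm and expressed as their quotient.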

[1] = dose: 100.0 mg/kg/injection, schedule: Q01DX001 (ip), vehicle: saline
[2] = dose: 100.0 mg/kg/injection, schedule: Q01DX009 (ip), vehicle: saline
[3] = dose: 100.0 mg/kg/injection, schedule: Q04DX003 (ip), vehicle: saline
[4] = dose: 200.0 mg/kg/injection, schedule: Q01DX001 (ip), vehicle: saline
[5] = dose: 200.0 mg/kg/injection, schedule: Q01DX009 (ip), vehicle: saline
[6] = dose: 200.0 mg/kg/injection, schedule: Q04DX003 (ip), vehicle: saline
[7] = dose: 400.0 mg/kg/injection, schedule: Q01DX001 (ip), vehicle: saline
[8] = dose: 400.0 mg/kg/injection, schedule: Q01DX009 (ip), vehicle: saline
[9] = dose: 400.0 mg/kg/injection, schedule: Q04DX003 (ip), vehicle: saline
[10] = dose: 100.0 mg/kg/injection, schedule: Q01DX001 (ip), vehicle: carboxymethylcellulose (CMC)
[11] = dose: 200.0 mg/kg/injection, schedule: Q01DX001 (ip), vehicle: carboxymethylcellulose (CMC)
[12] = dose: 400.0 mg/kg/injection, schedule: Q01DX001 (ip), vehicle: carboxymethylcellulose (CMC)
[13] = dose: 100.0 mg/kg/injection, schedule: Q04DX003 (ip), vehicle: saline with Tween-80
[14] = dose: 200.0 mg/kg/injection, schedule: Q04DX003 (ip), vehicle: saline with Tween-80
[15] = dose: 400.0 mg/kg/injection, schedule: Q04DX003 (ip), vehicle: saline with Tween-80
[16] = dose: 25.0 mg/kg/injection, schedule: Q01DX009 (ip), vehicle: saline with Tween-80
[17] = dose: 100.0 mg/kg/injection, schedule: Q01DX009 (ip), vehicle: saline with Tween-80

Measured: T/C

O=[N+]([O-])c1cc(Cl)c(O)c(Cl)c1Cl
inactive: dose: 25.0 mg/kg/injection, schedule: Q01DX009 (ip), vehicle: acetone 97 % of control | dose: 50.0 mg/kg/injection, schedule: Q01DX009 (ip), vehicle: acetone 97 % of control | dose: 50.0 mg/kg/injection, schedule: Q04DX003 (ip), vehicle: acetone 95 % of control | dose: 100.0 mg/kg/injection, schedule: Q01DX001 (ip), vehicle: acetone 102 % of control | dose: 100.0 mg/kg/injection, schedule: Q01DX009 (ip), vehicle: acetone 88 % of control | dose: 100.0 mg/kg/injection, schedule: Q04DX003 (ip), vehicle: acetone 92 % of control | dose: 150.0 mg/kg/injection, schedule: Q01DX009 (ip), vehicle: saline 90 % of control | dose: 200.0 mg/kg/injection, schedule: Q01DX001 (ip), vehicle: acetone 100 % of control | dose: 225.0 mg/kg/injection, schedule: Q01DX009 (ip), vehicle: saline 87 % of control

CC(=O)C1OC1(C)C (configuration not stated)
inactive: [1] 108 % of control | [2] 105 % of control | [3] 108 % of control | [4] 103 % of control | [5] 104 % of control | [6] 102 % of control | [7] 104 % of control | [8] 104 % of control | [9] 102 % of control

COc1cc(OC)c(NC(=O)CCl)cc1Cl
inactive: dose: 100.0 mg/kg/injection, schedule: Q01DX009 (ip), vehicle: Klucel (hydroxypropylcellulose) (HPC) 104 % of control | dose: 200.0 mg/kg/injection, schedule: Q01DX009 (ip), vehicle: Klucel (hydroxypropylcellulose) (HPC) 98 % of control

c1ccc(-c2cc[s+]s2)cc1
inactive: dose: 12.5 mg/kg/injection, schedule: Q01DX009 (ip), vehicle: water 95 % of control | dose: 12.5 mg/kg/injection, schedule: Q04DX003 (ip), vehicle: water 98 % of control | dose: 25.0 mg/kg/injection, schedule: Q01DX009 (ip), vehicle: water 91 % of control | dose: 25.0 mg/kg/injection, schedule: Q04DX003 (ip), vehicle: water 96 % of control | dose: 50.0 mg/kg/injection, schedule: Q01DX009 (ip), vehicle: water 98 % of control | dose: 50.0 mg/kg/injection, schedule: Q04DX003 (ip), vehicle: water 109 % of control

Cc1ccc2c(ccc(C)[n+]2C)c1
inactive: dose: 37.5 mg/kg/injection, schedule: Q01DX009 (ip), vehicle: acetone 117 % of control | dose: 37.5 mg/kg/injection, schedule: Q01DX009 (ip), vehicle: saline 110 % of control and 112 % of control | dose: 75.0 mg/kg/injection, schedule: Q01DX001 (ip), vehicle: saline 100 % of control | dose: 75.0 mg/kg/injection, schedule: Q01DX009 (ip), vehicle: saline 118 % of control and 121 % of control | dose: 150.0 mg/kg/injection, schedule: Q01DX001 (ip), vehicle: saline 108 % of control | dose: 150.0 mg/kg/injection, schedule: Q01DX009 (ip), vehicle: acetone 102 % of control | dose: 300.0 mg/kg/injection, schedule: Q01DX001 (ip), vehicle: saline 105 % of control

O=c1[nH][nH]c2ccccc12
inactive: dose: 31.2 mg/kg/injection, schedule: Q01DX Z (ip), vehicle: other 88 % of control | dose: 125.0 mg/kg/injection, schedule: Q01DX Z (ip), vehicle: other 88 % of control | dose: 250.0 mg/kg/injection, schedule: Q01DX Z (ip), vehicle: other 92 % of control

CCCCCC1CCCC1
inactive: dose: 100.0 mg/kg/injection, schedule: Q04DX002 (ip), vehicle: saline 94 % of control | dose: 200.0 mg/kg/injection, schedule: Q04DX002 (ip), vehicle: saline 106 % of control | dose: 400.0 mg/kg/injection, schedule: Q04DX002 (ip), vehicle: saline 103 % of control

CC(c1ccccc1)N(N=O)C(=O)c1ccc2ccccc2c1 (configuration not stated)
inactive: dose: 17.0 mg/kg/injection, schedule: Q04DX002 (ip), vehicle: saline 94 % of control | dose: 33.0 mg/kg/injection, schedule: Q04DX002 (ip), vehicle: saline 105 % of control | dose: 66.0 mg/kg/injection, schedule: Q04DX002 (ip), vehicle: saline 97 % of control

[O-][N+](=Nc1cccc(Br)c1)c1cccc(Br)c1
inactive: dose: 50.0 mg/kg/injection, schedule: Q01DX001 (ip), vehicle: carboxymethylcellulose (CMC) 101 % of control | [10] 104 % of control | [11] 101 % of control | [12] 117 % of control

COC(=O)c1ccc(C(=O)O)cc1
inactive: [13] 100 % of control | [14] 102 % of control | [15] 91 % of control

CCCCN(CC)CC#N
inactive: dose: 6.25 mg/kg/injection, schedule: Q01DX009 (ip), vehicle: saline 104 % of control | dose: 12.5 mg/kg/injection, schedule: Q01DX009 (ip), vehicle: saline 101 % of control | dose: 12.5 mg/kg/injection, schedule: Q04DX003 (ip), vehicle: saline 94 % of control | dose: 25.0 mg/kg/injection, schedule: Q01DX009 (ip), vehicle: saline 93 % of control | dose: 25.0 mg/kg/injection, schedule: Q04DX003 (ip), vehicle: saline 89 % of control

CCC[CH2][Sn]([CH2]C)([CH2]CCC)[CH2]CCC
inactive: [3] 93 % of control | [6] 93 % of control | [9] 95 % of control

C1=C\CCCCCCCC/1
inactive: dose: 6.25 mg/kg/injection, schedule: Q01DX009 (ip), vehicle: saline with Tween-80 93 % of control | dose: 12.5 mg/kg/injection, schedule: Q01DX009 (ip), vehicle: saline with Tween-80 104 % of control | [16] 98 % of control | [1] 101 % of control | [4] 101 % of control | [7] 95 % of control

C(=C\c1ccnc2ccccc12)/c1ccccc1
inactive: [2] 101 % of control | [13] 89 % of control | [5] 101 % of control | [14] 94 % of control | [8] 100 % of control | [15] 89 % of control

CS(=O)(=O)Nc1cc(Cl)c(NS(C)(=O)=O)c(Cl)c1Cl
inactive: dose: 100.0 mg/kg/injection, schedule: Q01DX001 (ip), vehicle: saline with Tween-80 101 % of control | dose: 200.0 mg/kg/injection, schedule: Q01DX001 (ip), vehicle: saline with Tween-80 96 % of control | dose: 400.0 mg/kg/injection, schedule: Q01DX001 (ip), vehicle: saline with Tween-80 107 % of control

O=S(=O)(O)c1ccc(-c2ccc(S(=O)(=O)O)cc2)cc1
inactive: dose: 88.8 mg/kg/injection, schedule: Q01DX Z (ip), vehicle: methylcellulose (MC) 98 % of control | dose: 133.0 mg/kg/injection, schedule: Q01DX Z (ip), vehicle: methylcellulose (MC) 90 % of control | dose: 200.0 mg/kg/injection, schedule: Q01DX Z (ip), vehicle: methylcellulose (MC) 86 % of control

CCOC(=S)SCCC(=O)O
inactive: [17] 95 % of control

[N-]=[N+]=NC1=CC(=O)C(c2ccccc2)=CC1=O
inactive: dose: 100.0 mg/kg/injection, schedule: Q04DX002 (ip), vehicle: saline with Tween-80 102 % of control | dose: 200.0 mg/kg/injection, schedule: Q04DX002 (ip), vehicle: saline with Tween-80 97 % of control

CCOC(=O)NC1CCCCC1
inactive: dose: 100.0 mg/kg/injection, schedule: Q01DX001 (ip), vehicle: gum acacia 97 % of control | dose: 200.0 mg/kg/injection, schedule: Q01DX001 (ip), vehicle: gum acacia 97 % of control | dose: 400.0 mg/kg/injection, schedule: Q01DX001 (ip), vehicle: gum acacia 105 % of control

COc1ccc([N+](=O)[O-])cc1NC(C)=O
inactive: [10] 99 % of control | [11] 99 % of control | [12] 99 % of control

O=C(O)CS(=O)(=O)CC(=O)O
inactive: [13] 98 % of control | [14] 93 % of control

Clc1ccccc1-c1ncc2cnccn12
inactive: [16] 98 % of control | dose: 25.0 mg/kg/injection, schedule: Q04DX003 (ip), vehicle: saline with Tween-80 90 % of control | dose: 50.0 mg/kg/injection, schedule: Q01DX009 (ip), vehicle: saline with Tween-80 101 % of control | dose: 50.0 mg/kg/injection, schedule: Q04DX003 (ip), vehicle: saline with Tween-80 102 % of control | [17] 107 % of control | [13] 96 % of control and 92 % of control
